From patent US20250073209A1, “COVALENT TARGETING OF RhoA FOR CANCER THERAPY” (The University of Hong Kong, priority 2023, published 2025)

Columns and labels:
[1] = reported studies; cited from earlier work
Cdc42 = Cdc42 (Homo sapiens, UniProt P60953); test: Cdc42-GTP PAK-PBD pull-down in HT29 cells; assay type: cell-based; parameters: endogenous in cells; host or cells: HT29; settings: HT29, 30 μM (working concentration for RhoA inhibition)
Text: The procedure is similar to that for RhoA-GTP assay, except that Rac1-GTP and Cdc42-GTP in CRC cells were first enriched by Rac1 Pull-Down Activation Assay Biochem Kit (Cytoskeleton #BK035) instead of using the RhoA kit. The enriched Rac1-GTP and Cdc42-GTP were then immunoblotted by Rac1/2/3 antibody (CST #2465) and Cdc42 antibody (CST #2462) respectively.
GTP loading onto RhoA is critical for the protein activation and mediating downstream signals. In view of the inhibitions of GDP-to-GTP exchange of RhoA by CL16 in vitro as discussed above, effects of CL16 on RhoA biology in colorectal cancer cells were examined. In the serum starvation-re-stimulation experiment, HCT116 cells were grown in serum-free medium with CL16, Rhosin or solvent control for 24 h, followed by stimulation with 10% FBS for 10 min. The cells were then lysed and the RhoA activity was assayed by the level of RhoA-GTP, which is the active form of RhoA. […] HT29 cells were incubated with solvent vehicle, CL16 or Rhosin in complete medium for 24 h. The cells were then washed, lysed and subjected to rhotekin pull-down for blotting RhoA-GTP, or PAK-PBD pull-down for blotting Rac1-GTP and Cdc42-GTP. Confocal fluorescence images from HCT116 and HT29 cells expressing FRET RhoA-biosensor in the serum starvation-restimulation experiment were taken.

FLAG-RhoA = target: T1, FLAG-RhoA (Homo sapiens, UniProt P61586); test: CL16-alkyne labeling of FLAG-RhoA in HCT116 cells (anti-FLAG IP, CuAAC, in-gel fluorescence); assay type: cell-based; settings: after immunoprecipitation and CuAAC
T1 construct: expressed in transfected cells; host or cells: HCT116
T1 sequence (P61586 whole entry): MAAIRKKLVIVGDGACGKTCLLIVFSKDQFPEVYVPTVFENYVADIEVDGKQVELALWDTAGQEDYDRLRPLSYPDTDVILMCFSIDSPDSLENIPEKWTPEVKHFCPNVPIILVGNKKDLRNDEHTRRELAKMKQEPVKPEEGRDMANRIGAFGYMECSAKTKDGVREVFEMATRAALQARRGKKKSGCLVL
Method: HCT116 cells transiently expressing FLAG-RhoA were pre-treated with solvent vehicle or CL16 for 2 h, followed by the incubation with CL16-alkyne in complete medium for another 2 h. The cells were then lysed and subjected to immunoprecipitation by anti-FLAG beads. The enriched proteins were reacted with rhodamine azide through copper-catalyzed azide-alkyne cycloaddition (CuAAC), boiled with sampling buffer and separated by SDS-PAGE. The protein bands were then visualized by their in-gel fluorescence or blotted for RhoA. […] HCT116 cells were pre-treated with solvent vehicle or CL16 for 2 h, followed by the incubation with CL16-alkyne in complete medium for another 2 h. The cells were then lysed, reacted with rhodamine azide through CuAAC, boiled with sampling buffer, separated by SDS-PAGE and imaged. […]
To identify protein target and any off-targets of CL16 in CRCs, a molecular probe of CL16, CL16-alkyne (FIG. 6A), was synthesized. […] The protein bands were then visualized by their in-gel fluorescence or blotted for RhoA. […] The probe-labeled proteins were installed with rhodamine through CuAAC, and visualized by their in-gel fluorescence after SDS-PAGE. A protein band with strong fluorescence was found at −22 kDa in the sample incubated with CL16-alkyne only, in line with the molecular weight of RhoA (FIG. 6C).

Chain of Cdc42 (P60953 whole entry): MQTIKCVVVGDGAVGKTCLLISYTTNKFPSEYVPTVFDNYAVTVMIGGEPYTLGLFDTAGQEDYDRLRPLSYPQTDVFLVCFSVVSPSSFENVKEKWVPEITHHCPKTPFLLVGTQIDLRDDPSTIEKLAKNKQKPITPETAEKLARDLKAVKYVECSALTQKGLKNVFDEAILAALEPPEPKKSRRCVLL

Row | Cdc42 activity (Cdc42-GTP) (Cdc42) | Compound | working concentration (anticancer efficacy) [1] | probe labeling of FLAG-RhoA (in-gel fluorescence) (FLAG-RhoA)
1 | inhibited Cdc42 | N[C@H](Cc1c[nH]c2ccccc12)C(=O)N/N=C/c1ccc2nccnc2c1 [Rhosin, reference compound] | ≥ 30 µM | –
2 | – | C#CCOc1cccc2oc(C3=NN(C(=O)CCl)C(c4ccco4)C3)cc12 (stereo not drawn) [CL16-alkyne] | – | strong fluorescence from FLAG-RhoA protein
